Data published in paper PMC12627862, “Therapeutic targeting of endothelial calcium signaling accelerates the resolution of lung injury” (Signal Transduction and Targeted Therapy, 2025).
Starred links: 1 amine or outer side, 2 acyl side, 3 side chain; linkers in the order of their positions; H or OH if unused. Non-standard residues stand in square brackets, D forms with d. Residues, ends and D or L forms follow the SMILES beside them. ξ: configuration not given here. Oic = O=C(O)[C@@H]1C[C@@H]2CCCC[C@@H]2N1; GABOB(3R) = O=C(C[C@@H](O)CN[*:1])[*:2]; tBuAla = CC(C)(C)C[C@H](N)C(=O)O; ξVal(3-OH) = CC(C)(O)C(N)C(=O)O; 4Amb = NCc1ccc(C(=O)O)cc1

Assay: in vivo
Details: male, Crl:CD (SD), rat, iv, 5 mg/kg

## CC(C)(C)C[C@@H]1NC(=O)C[C@@H](O)CNC(=O)[C@@H]2C[C@@H]3CCCC[C@@H]3N2C(=O)[C@H](CC(C)(C)C)NC(=O)c2ccc(cc2)CNC(=O)C(C(C)(C)O)NC(=O)[C@@H](Cc2ccccc2)NC1=O (stereo partly drawn) [compound 109, (1^2S,1^3aS,1^7aS,3S,10S,13R,16S,20R)-13-benzyl-20-hydroxy-10-(2-hydroxypropan-2-yl)-3,16-dineopentyl-1^2,1^3,1^3a,1^4,1^5,1^6,1^7,1^7a-octahydro-1^1H-4,8,11,14,17,22-hexaaza-1(1,2)-indola-6(1,4)-benzenacyclotricosaphane-2,5,9,12,15,18,23-heptaone.] (cyclo([4Amb][tBuAla][Oic][GABOB(3R)][tBuAla][dF][ξVal(3-OH)]))
  level at 0.167 h: 23700 ng/mL
  level at 0.5 h: 2550 ng/mL
  level at 1 h: 580 ng/mL
  level at 1.5 h: 399 ng/mL
  level at 2 h: 252 ng/mL
  level at 4 h: 127 ng/mL
  level at 6 h: 66.3 ng/mL
  level at 8 h: 42.7 ng/mL
  level at 24 h: 5.9 ng/mL
